Columns and labels:
[1] = Solubility of active ingredients in solvents of the invention (equilibrated 4 weeks, supernatant analysed by gas chromatography)
Description: The resultant sample was mixed with a Whirlimixer™ and was then stored at 25° C. […] This procedure was repeated until the sample had equilibrated for 4 weeks following the final addition of either active ingredient or solvent.

[2] = Solubility of pesticides in propylene glycol benzoate compared with commonly used solvents; conditions: comparison in words; 20° C.
[3] = solvent propylene glycol benzoate (compound 1), 25° C., equilibrated 4 weeks
[4] = solvent butylene glycol benzoate (compound 2), 25° C., equilibrated 4 weeks

SMILES	Solubility in propylene glycol benzoate at 25° C. [1, 3] [% w/w]	Solubility in propylene glycol benzoate relative to a series of commonly used solvents [2]	Solubility in butylene glycol benzoate at 25° C. ([1]; 4 weeks) [% w/w]	Solubility in propylene glycol benzoate at 25° C. ([1]; 4 weeks) [% w/w]	Solubility in butylene glycol benzoate at 25° C. [1, 4] [% w/w]
N#Cc1c(Cl)c(Cl)c(Cl)c(C#N)c1Cl [Chlorothalonil]	1.32	lower			
COCCOCc1nc(C(F)(F)F)ccc1C(=O)C1=C(O)C2CCC(C2)C1=O (centres unmarked) [4-Hydroxy-3-[2-(2-methoxyethoxymethyl)-6-trifluoromethylpyridine-3-carbonyl]-bicyclo[3.2.1]oct-3-en-2-one]	27.4				
CC(C1CC1)C(O)(Cn1cncn1)c1ccc(Cl)cc1 (centres unmarked) [Cyproconazole]			6.9	4.5	
CC(C)C1C2CCC1c1c(NC(=O)c3cn(C)nc3C(F)F)cccc12 (centres unmarked) [Isopyrazam]	12.7	higher			12.4
CO/C=C(/C(=O)OC)c1ccccc1Oc1cc(Oc2ccccc2C#N)ncn1 [Azoxystrobin]	5.5	higher			8.1
